Results on six molecules are retold here after paper PMC4959829 (Biochemical Pharmacology, 2016).

Where two headings read alike, the source gives them in different places.

Data set [1] concerns hERG (WT). Particulars: cited from earlier work.
Data set [2] relates to hERG (WT). Particulars: cited from earlier work. The source holds these as a separate data set.
Another data set concerns the target Y652A hERG (Homo sapiens, UniProt Q12809, Y652A). Particulars: cited from earlier work.
The target in the next data set is F656A hERG (Homo sapiens, UniProt Q12809, F656A). Particulars: cited from earlier work.
Data set [3] relates to hERG (WT). Put plainly: Literature IhERG block, WT hERG in Xenopus oocytes. In kind it is cell-based. Particulars: human, Xenopus oocytes expressing WT hERG; Oocyte, room temperature; estimated from single dose data with Hill equation, h = 1; read-out: WT IC50 (estimated).
The mark [4] stands for this setting: read-out: WT IC50, Oocyte, room temperature.

As usually defined, the IC50 is the midpoint of a concentration-inhibition curve. Turning to `COc1cc(N)c(Cl)cc1C(=O)NC1CCN(CCCOc2ccc(F)cc2)CC1OC` (stereo not drawn) [Cisapride], the IC50 in the data set on hERG (WT) [1] was […].

F656A hERG, sequence (Q12809 whole entry F656A): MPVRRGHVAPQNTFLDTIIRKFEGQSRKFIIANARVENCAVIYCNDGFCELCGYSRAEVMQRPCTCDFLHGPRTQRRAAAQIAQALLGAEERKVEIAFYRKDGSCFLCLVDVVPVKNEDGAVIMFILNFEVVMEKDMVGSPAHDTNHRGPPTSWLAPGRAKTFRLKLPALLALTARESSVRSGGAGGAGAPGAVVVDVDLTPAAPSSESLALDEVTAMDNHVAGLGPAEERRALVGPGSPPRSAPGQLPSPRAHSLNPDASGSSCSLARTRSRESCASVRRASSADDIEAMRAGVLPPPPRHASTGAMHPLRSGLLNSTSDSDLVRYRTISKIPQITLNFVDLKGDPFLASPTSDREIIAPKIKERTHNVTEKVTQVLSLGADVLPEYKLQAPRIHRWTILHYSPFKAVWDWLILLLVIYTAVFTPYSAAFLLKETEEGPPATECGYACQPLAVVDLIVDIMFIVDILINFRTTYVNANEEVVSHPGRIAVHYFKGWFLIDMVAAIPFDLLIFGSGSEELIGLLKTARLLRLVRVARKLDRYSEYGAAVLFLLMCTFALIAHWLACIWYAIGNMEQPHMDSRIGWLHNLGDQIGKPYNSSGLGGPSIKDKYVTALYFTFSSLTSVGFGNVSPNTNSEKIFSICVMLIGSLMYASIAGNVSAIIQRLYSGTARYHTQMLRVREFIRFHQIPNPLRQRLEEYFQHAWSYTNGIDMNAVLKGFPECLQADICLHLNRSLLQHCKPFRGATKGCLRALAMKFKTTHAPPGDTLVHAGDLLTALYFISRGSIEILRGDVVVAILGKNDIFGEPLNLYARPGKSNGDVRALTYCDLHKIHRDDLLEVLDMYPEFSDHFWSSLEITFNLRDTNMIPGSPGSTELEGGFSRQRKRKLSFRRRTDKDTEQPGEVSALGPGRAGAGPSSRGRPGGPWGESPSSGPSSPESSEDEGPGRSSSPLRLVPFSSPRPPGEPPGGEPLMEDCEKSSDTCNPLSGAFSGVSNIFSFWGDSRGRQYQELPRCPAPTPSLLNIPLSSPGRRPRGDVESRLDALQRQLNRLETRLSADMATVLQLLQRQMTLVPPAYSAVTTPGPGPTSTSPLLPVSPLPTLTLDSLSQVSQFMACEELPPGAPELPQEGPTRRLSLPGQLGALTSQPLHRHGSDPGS
Y652A hERG, sequence (Q12809 whole entry Y652A): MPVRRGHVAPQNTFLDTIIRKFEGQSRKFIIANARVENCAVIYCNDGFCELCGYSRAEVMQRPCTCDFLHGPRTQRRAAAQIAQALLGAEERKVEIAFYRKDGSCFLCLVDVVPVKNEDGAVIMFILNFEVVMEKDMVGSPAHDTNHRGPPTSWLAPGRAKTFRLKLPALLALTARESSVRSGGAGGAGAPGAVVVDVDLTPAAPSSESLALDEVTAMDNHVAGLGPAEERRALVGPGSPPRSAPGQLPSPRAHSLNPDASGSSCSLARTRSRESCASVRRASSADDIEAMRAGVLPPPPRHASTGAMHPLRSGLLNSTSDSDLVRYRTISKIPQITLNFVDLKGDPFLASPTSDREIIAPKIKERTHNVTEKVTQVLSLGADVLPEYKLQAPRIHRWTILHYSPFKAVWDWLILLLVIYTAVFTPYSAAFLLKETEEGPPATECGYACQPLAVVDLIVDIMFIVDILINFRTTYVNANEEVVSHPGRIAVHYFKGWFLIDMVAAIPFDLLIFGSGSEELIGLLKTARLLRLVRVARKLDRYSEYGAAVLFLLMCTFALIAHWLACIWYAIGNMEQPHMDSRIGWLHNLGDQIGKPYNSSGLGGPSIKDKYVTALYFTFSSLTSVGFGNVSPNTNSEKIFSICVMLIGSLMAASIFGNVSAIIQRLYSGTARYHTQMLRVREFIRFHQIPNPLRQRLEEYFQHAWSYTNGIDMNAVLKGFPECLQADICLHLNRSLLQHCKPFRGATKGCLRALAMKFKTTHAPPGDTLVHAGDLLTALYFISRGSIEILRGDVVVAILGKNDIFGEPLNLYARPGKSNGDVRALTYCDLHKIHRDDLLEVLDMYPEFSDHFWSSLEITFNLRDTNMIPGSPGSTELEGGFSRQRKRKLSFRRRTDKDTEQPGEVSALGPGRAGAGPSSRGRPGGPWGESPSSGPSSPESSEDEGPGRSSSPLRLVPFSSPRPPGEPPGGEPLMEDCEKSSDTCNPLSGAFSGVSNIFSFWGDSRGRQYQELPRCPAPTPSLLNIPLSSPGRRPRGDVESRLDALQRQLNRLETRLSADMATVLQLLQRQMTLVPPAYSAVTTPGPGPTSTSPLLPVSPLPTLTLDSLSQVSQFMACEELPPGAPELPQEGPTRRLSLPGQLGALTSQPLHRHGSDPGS

Turning to `O=C1Cc2cc(CCN3CCN(c4nsc5ccccc45)CC3)c(Cl)cc2N1` [Ziprasidone], the 50% inhibitory concentration (IC50) was 120 nM in the data set on hERG (WT) [2] (HEK293, 37 °C, read-out: WT IC50) and 2800 nM with hERG (WT) [1]. Also, at Y652A hERG, the “IC50 fold increase (mutant IC50/WT IC50), Y652A” value is 140 fold. Moreover, the “IC50 fold increase (mutant IC50/WT IC50), F656A” value at F656A hERG is listed as 357 fold.

With `CCCCCCC[N+](CC)(CC)CCCCc1ccc(Cl)cc1` [Clofilium], the IC50 in the data set with hERG (WT) [1] (setting [4]) is 30 nM.

As for `CCCCCCCN(CC)CCCC(O)c1ccc(NS(C)(=O)=O)cc1` (stereo not drawn) [Ibutilide], the IC50 in the data set with hERG (WT) [1] (setting [4]) was […].

Regarding `CN(CCOc1ccc(NS(C)(=O)=O)cc1)CCc1ccc(NS(C)(=O)=O)cc1` [Dofetilide, dofetilide], the potency estimated from few doses with hERG (WT) [3] is […].

For `CCCCc1oc2ccccc2c1C(=O)c1cc(I)c(OCCNCC)c(I)c1` [desethyl-amiodarone], the IC50 in the data set on hERG (WT) [2] (metabolite DEA, read-out: IhERG IC50) was roughly 160 nM.
